In EP0390112B1, “Selective adenosine receptor agents” (MERRELL PHARMACEUTICALS INC., priority 1989, dated 1990):

How the values were obtained:
Adenosine A-1 receptor = target: T1, Adenosine A-1 receptor (Rattus norvegicus, UniProt P25099); assay: Test for affinity for brain adenosine A-1 receptor binding sites ([3H]cyclohexyladenosine competition); conditions: [3H]cyclohexyladenosine 0.8 nM, rat brain membranes, 25°C, 2 hours
T1 construct: the membranes are isolated from whole animal brains; from tissue; host or cells: whole brain of male Sprague-Dawley rats
T1 sequence (P25099 1-326): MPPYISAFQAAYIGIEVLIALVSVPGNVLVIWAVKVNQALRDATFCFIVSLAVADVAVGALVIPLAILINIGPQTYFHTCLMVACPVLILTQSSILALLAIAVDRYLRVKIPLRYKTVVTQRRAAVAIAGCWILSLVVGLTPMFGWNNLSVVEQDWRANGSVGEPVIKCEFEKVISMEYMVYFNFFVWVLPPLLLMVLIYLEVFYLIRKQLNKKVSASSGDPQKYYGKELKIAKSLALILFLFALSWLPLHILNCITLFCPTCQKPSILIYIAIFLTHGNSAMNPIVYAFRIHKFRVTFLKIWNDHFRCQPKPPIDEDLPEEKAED
Excerpt: Test For Affinity For Brain Adenosine A-1 Receptor Binding Sites
The test described below is used to determine the potency of test compounds to compete with the ligand [3H]cycloadenosine for the Adenosine A-1 receptor prepared from rat brain membranes. Male Sprague-Dawley rats are sacrificed by decapitation and the membranes are isolated from whole animal brains. (See R. Goodman, M. Cooper, M. Gavish, and S. Synder, Guanine Nucleotide and Cation Regulation of the Binding of [3H] Diethylphenylxanthine to Adenosine A-1 Receptors in Brain Membrane, Molecular Pharmacology, 21, 329-335, (1982), incorporated herein by reference.)
Membranes are homogenized (using polytron setting 7 for 10 seconds) in 25 volumes of ice-cold 50 mM Tris-HCl buffer, pH 7.7. The homogenate is centrifuged at 19,000 rpm for 10 minutes at 4°C. The pellet is washed by resuspending in 25 volumes of buffer with 2 IU of adenosine deaminase per ml and incubated 30 minutes at 37°C. The homogenate is centrifuged again. The final pellet is resuspended in 25 volumes of ice-cold buffer.
The incubation tubes, in triplicate, receive 100 µl of [3H]cyclohexyladenosine, 0.8 nM in the assay, 200 µl of test compounds at various concentrations over the range of 10^-10 M to 10^-6 M diluted with […] Tris-HCl buffer (pH 7.7), 0.2 ml of membrane suspension (8 mg wet weight) and in a final volume of 2 ml with Tris buffer. Incubations are carried out at 25°C for 2 hours and each one is terminated within 10 seconds by filtration through a GF/B glass fiber filter using a vacuum. The membranes on the filters are transferred to scintillation vials. The filters are counted by liquid scintillation spectometry in 8 ml of Omniflour containing 5% Protosol.
Specific binding of [3H]cycloadenosine is measured as the excess over blanks taken in the presence of 10^-5 M 2-chloroadenosine. Total membrane-bound radioactivity is about 5% of that added to the test tubes. Specific binding to membranes is about 90% of the total bound. Protein content of the membrane suspension is determined by the method of Lowry, et al. Id., 265.
Displacement of [3H]cyclohexyladenosine binding of 15% or more by a test compound is indicative of affinity for the adenosine binding site.

adenosine A-2 receptors = target: T2, adenosine A-2 receptors (Rattus norvegicus, UniProt P30543); assay: Test for affinity for brain adenosine A-2 receptors ([3H]NECA competition); assay type: binding; conditions: rat brain striatum membranes, 25°C, 60 minutes, read-out: A-2 Receptor Ki
T2 construct: the adenosine A-2 receptors prepared from animal brain membranes; from tissue; host or cells: striatum of young male rats (C-D strain, Charles River)
T2 sequence (P30543 whole entry): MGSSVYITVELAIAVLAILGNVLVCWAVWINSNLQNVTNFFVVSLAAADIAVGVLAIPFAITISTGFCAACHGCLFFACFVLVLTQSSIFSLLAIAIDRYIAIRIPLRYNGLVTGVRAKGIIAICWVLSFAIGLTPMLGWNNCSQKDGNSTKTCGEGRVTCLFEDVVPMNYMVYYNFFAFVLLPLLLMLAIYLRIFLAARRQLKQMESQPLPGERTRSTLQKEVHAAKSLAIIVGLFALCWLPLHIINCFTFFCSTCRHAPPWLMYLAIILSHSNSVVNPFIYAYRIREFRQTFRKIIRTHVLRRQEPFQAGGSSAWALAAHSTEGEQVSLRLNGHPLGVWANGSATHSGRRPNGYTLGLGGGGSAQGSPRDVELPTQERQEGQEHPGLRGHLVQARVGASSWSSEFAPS
Excerpt: Test For Affinity For Brain Adenosine A-2 Receptors
The test described below was used to determine the potency of test compounds to compete with the ligand [3H]5′-N-ethyl-carboxamidoadenosine (NECA) for the adenosine A-2 receptors prepared from animal brain membranes. (See also R.R. Bruns, G.H. Lu, and T.A. Pugsley, Characterization of the A-2 Adenosine Receptor Labeled by [3H]NECA in Rat Striatal Membranes, Mol. Pharmacol., 29, 331-346, (1986), incorporated herein by reference.) Young male rats (C-D strain), obtained from Charles River, are killed by decapitation and the brain was removed. Membranes for ligand binding are isolated from rat brain striatum. The tissue is homogenized in 20 vol ice-cold 50 mM Tris-HCl buffer (pH 7.7) using a polytron (setting 6 for 20 seconds). The homogenate is centrifuged at 50,000 x g for 10 minutes at 4°C. The pellet is again homogenized in a polytron in 20 vol of buffer, and centrifuged as before. The pellet is finally resuspended in 40 vol of 50mM Tris-HCl (pH 7.7) per gram of original wet weight of tissue.
Incubation tubes, in triplicate, receive 100 µl of [3H]NECA (94 nM in the assay), 100 µl of 1 µM cyclohexyladenosine (CHA), 100 µl of 100 mM MgCl2, 100 µl of 1 IU/ml adenosine deaminase, 100 µl of test compounds at various concentrations over the range of 10^-10 M to 10^-4 M diluted with assay buffer (50 mM Tris-HCl, pH 7.7) and […] of membrane suspension (5 mg wet weight), in a final volume of 1 ml of 50 mM Tris-HCl, pH 7.7. Incubations are carried out at 25°C for 60 minutes. Each tube is filtered through GF/B glass fiber filters using a vacuum. The filters are rinsed two times with 5 ml of the ice-cold buffer. The membranes on the filters are transferred to scintillation vials to which 8 ml of Omnifluor with 5% Protosol is added. The filters are counted by liquid scintillation spectrometry.
Specific binding of [3H]NECA is measured as the excess over blanks run in the presence of 100 µM 2-chloroadenosine. Total membrane-bound radioactivity is about 2.5% of that added to the test tubes. […] Specific binding to membranes is about 50% of the total bound. Protein content of the membrane suspension is determined by the method of O.H. Lowry, N.J. Rosebrough, A.L. Farr and R.J. Randall, Protein Measurements With Folin Phenol Reagent, J. Biol. Chem., 193, 265-275 (1951), (incorporated herein by reference).
Displacement of [3H]NECA binding of 15% or more by a test compound is indicative of affinity for the adenosine A-2 site. The molar concentration of a compound which causes 50% inhibition of the binding of ligand is the IC50.

A-2 receptors = conditions: brain slice assay; cited from earlier work

**Q.** What does the source list for `CCCOc1nc(N[C@H](C)Cc2ccccc2)c2cnn(-c3ccccc3)c2n1` [Compound 1, (R)-N-(1-methyl-2-phenylethyl)-1-phenyl-6-propoxy-1H-pyrazolo[3,4-d]pyrimidin-4-amine]?
**A.** Ki (Adenosine A-1 receptor): 2010 nM; Ki (adenosine A-2 receptors): 3630 nM

**Q.** What does the source list for `CCCOc1nc(N[C@@H](C)Cc2ccccc2)c2cnn(-c3ccccc3)c2n1` [Compound 2, (S)-N-(1-methyl-2-phenylethyl)-1-phenyl-6-propoxy-1H-pyrazolo[3,4-d]pyrimidin-4-amine]?
**A.** Ki (Adenosine A-1 receptor): 11300 nM; Ki (adenosine A-2 receptors): > 6990 nM

**Q.** Which Ki (Adenosine A-1 receptor) does the source give for `CCCOc1nc(N[C@H](CO)Cc2ccccc2)c2cnn(-c3ccccc3)c2n1` [Compound 3, (S)-β-[(1-phenyl-6-propoxy-1H-pyrazolo[3,4-d]pyrimidin-4-yl)amino]benzenepropanol] here?
**A.** 1740 nM

**Q.** And the Ki (adenosine A-2 receptors)?
**A.** 2900 nM

**Q.** For `CCCOc1nc(N[C@@H](CO)Cc2ccccc2)c2cnn(-c3ccccc3)c2n1` [Compound 4, (R)-β-[(1-phenyl-6-propoxy-1H-pyrazolo[3,4-d]pyrimidin-4-yl)amino]benzenepropanol], which Ki (Adenosine A-1 receptor) is on record?
**A.** 321 nM

**Q.** What about the Ki (adenosine A-2 receptors) of the same compound?
**A.** 377 nM

**Q.** What does the source list for `CCCOc1nc(N[C@@H](CO)Cc2ccccc2)c2ncn([C@@H]3O[C@H](CO)[C@@H](O)[C@H]3O)c2n1` [Compound 5]?
**A.** Ki (Adenosine A-1 receptor): 3700 nM; Ki (adenosine A-2 receptors): 17200 nM

**Q.** Which Ki (Adenosine A-1 receptor) does the source give for `CCCOc1nc(N[C@H](CO)Cc2ccccc2)c2ncn([C@@H]3O[C@H](CO)[C@@H](O)[C@H]3O)c2n1` [Compound 6] here?
**A.** 44 nM

**Q.** And the Ki (adenosine A-2 receptors)?
**A.** 1900 nM

**Q.** With `CCCn1c(=O)c2[nH]c(-c3ccc(OCC(=O)NCCN)cc3)nc2n(CCC)c1=O` [XAC, amino congener of 8-phenyl-1,3-dipropyl-xanthine] as the compound, how does the Ki (A-2 receptors) read?
**A.** 49 ± 17 nM

**Q.** For `CCCn1c(=O)c2[nH]c(-c3ccc(OCC(=O)O)cc3)nc2n(CCC)c1=O` [XCC, carboxylic acid congener of 8-phenyl-1,3-dipropyl-xanthine], which Ki (A-2 receptors) is on record?
**A.** 34 ± 13 nM
